From paper PMC11744973, “Optimized extraction and kinetic study of cholesterol oxidase from a newly isolated Escherichia fergusonii strain from local whey samples: insights through a combined experimental study and artificial neural network modeling” (BMC Microbiology, 2025)

Test system: T1, cholesterol oxidase (ChoX, ChOx)
T1 construct: native extracellular enzyme purified from culture supernatant (ammonium sulfate, Q-Sepharose)
Test: HRP-coupled 4-aminoantipyrine/phenol quinoneimine assay at […] nm, Lineweaver-Burk
Format: biochemical, Escherichia fergusonii
Settings: optimum conditions (30 °C, pH 7.5, in the presence of MgSO4 per abstract); KPB; cholesterol 0.1-3.0 mM in Triton X-100; O2 co-substrate

CC(C)CCC[C@@H](C)[C@H]1CC[C@H]2[C@@H]3CC=C4C[C@@H](O)CC[C@]4(C)[C@H]3CC[C@]12C [cholesterol]
Km: 710 µM
